{
  "source": "ChEMBL document CHEMBL4417637",
  "about": "“Sensitization of cancer cells to nampt inhibitors by nicotinic acid phosphoribosyltransferase neutralization” (2017)",
  "key": {"[1]": {"biological_target": "T1, Nicotinate phosphoribosyltransferase (Homo sapiens) (UniProt Q6XQN6)", "T1 sequence (whole entry)": "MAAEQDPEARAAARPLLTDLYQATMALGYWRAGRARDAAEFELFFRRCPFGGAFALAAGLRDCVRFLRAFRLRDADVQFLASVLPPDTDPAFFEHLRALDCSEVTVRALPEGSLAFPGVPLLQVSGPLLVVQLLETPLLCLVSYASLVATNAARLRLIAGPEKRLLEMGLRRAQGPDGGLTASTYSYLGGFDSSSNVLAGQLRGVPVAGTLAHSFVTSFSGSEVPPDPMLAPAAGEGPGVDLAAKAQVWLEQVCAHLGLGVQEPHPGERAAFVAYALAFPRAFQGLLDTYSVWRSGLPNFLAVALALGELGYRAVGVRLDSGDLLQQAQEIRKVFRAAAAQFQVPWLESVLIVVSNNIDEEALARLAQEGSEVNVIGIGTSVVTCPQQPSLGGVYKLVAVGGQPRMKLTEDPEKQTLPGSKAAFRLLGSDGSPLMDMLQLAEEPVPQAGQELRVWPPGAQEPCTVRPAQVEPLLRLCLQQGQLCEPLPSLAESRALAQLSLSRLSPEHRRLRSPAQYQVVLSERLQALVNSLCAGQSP", "test": "Inhibition of NAPRT in human OVCAR5 cells assessed as potentiation of NAMPT inhibitor FK866-induced cytotoxicity by measuring reduction in cell viability at 300 uM to 1 mM incubated for 72 hrs by SRB assay", "type": "cell-based"}, "NAMALVA": {"tested_on": "NAMALVA", "test": "Potentiation of NAMPT inhibitor 10 mg/kg, ip bid FK866-induced antitumor activity in human NAMALWA cells xenografted in SCID mouse assessed as increase in mouse survival at 35 mg/kg, ip bid up to 45 days", "type": "functional, organism-based"}, "[2]": {"test": "Toxicity in NAMPT inhibitor 10 mg/kg, ip bid FK866 treated SCID mouse xenografted with human NAMALWA cells assessed as induction of obvious signs of clinical toxicity at 35 mg/kg, ip bid up to 45 days", "type": "organism-based", "settings": "in vivo, 1080 h"}},
  "note": "The source made the active and inactive calls. The calls are words filed in the database; no cut-off is given here.",
  "data": [
    {"smiles": "O=C(O)c1ccccc1O", "values": [
      {"measurement": "inhibition", "setting": "[1]", "result": "Active"}
    ]},
    {"smiles": "CC(=O)Oc1ccccc1C(=O)O", "note": "[ASPIRIN]", "values": [
      {"measurement": "Activity", "setting": "NAMALVA", "result": "Active"},
      {"measurement": "Activity", "setting": "[2]", "result": "Non-Toxic"}
    ]}
  ]
}
